Values after ≈ are worked out from the molar mass of the structure shown.
Test system: Staphylococcus aureus
Assay: antibiotic activity (MIC) on Staphylococcus aureus
Type: cell-based

CO[C@H]1/C=C/O[C@@]2(C)Oc3c(C)c(O)c4c(O)c(c(/C=N/N5CCN(C)CC5)c(O)c4c3C2=O)NC(=O)/C(C)=C\C=C\[C@H](C)[C@H](O)[C@@H](C)[C@@H](O)[C@@H](C)[C@H](OC(C)=O)[C@@H]1C [rifampicin]
MIC: ~0.01 µg/mL (≈ 0.0122 µM)
